The subject of test [1] is lung tumor cell line. The test can be described thus: NCI in vitro anti-tumor screen, three-cell line evaluation (SRB protein assay), lung. Type of test: cell-based, human. To be noted: sample concentration 5.00 E-05 Molar, 48 hour continuous drug exposure. The protocol:
The testing below was conducted by the United States Public Health Service, Department of Health and Human Services. The National Cancer Institute (NCl) in vitro anti-tumor screening test consists of about 60 human tumor cell lines against which compounds are tested at a minimum of 5 concentrations at 10 fold dilutions. A 48 hour continuous drug exposure protocol is used, and a sulforhodamine B (SRB) protein assay is used to estimate cell viability or growth.
(§1) Data for the compound shown in the attached FIG. 3 which was tested according to the National Cancer Institutes Developmental Theraputics Program (dose response curves) is shown in attached FIG. 13.
On the technique in general: Sulforhodamine B stains cellular protein and so reports cell mass.

Test [2] relates to breast tumor cell line. The test can be described thus: NCI in vitro anti-tumor screen, three-cell line evaluation (SRB protein assay), breast. To be noted: sample concentration 5.00 E-05 Molar, 48 hour continuous drug exposure. Type of test: cell-based, human. The protocol:
The testing below was conducted by the United States Public Health Service, Department of Health and Human Services. […] A 48 hour continuous drug exposure protocol is used, and a sulforhodamine B (SRB) protein assay is used to estimate cell viability or growth.
as §1

Test [3] has as its system CNS tumor cell line. The test can be described thus: NCI in vitro anti-tumor screen, three-cell line evaluation (SRB protein assay), CNS. The class given is cell-based, human. To be noted: sample concentration 5.00 E-05 Molar, 48 hour continuous drug exposure.
Test [4] concerns human tumor cell lines. The test can be described thus: NCI three-cell line evaluation, overall activity call. To be noted: three-cell line (lung, breast, CNS); 5.00 E-05 Molar. The class given is cell-based.

As to `CC[C@H](C)[C@H](NC(=O)[C@H](Cc1ccc(O)cc1)NCC(F)(F)F)C(=O)OC(C)(C)C` [S712619], in test [1], the “Growth Percentages lung” value was −77%. Also, the “Growth Percentages breast” value in test [2] is −57%. In addition, the “Growth Percentages CNS” value in test [3] is −75%. In addition, in test [4], the outcome was active.

The values are drawn from US6794492B2, “Perfluoroalkyl compounds and their methods of use and manufacture” (Clemson University, priority 2000, dated 2004).
